Results published in PubChem BioAssay AID248 (DTP/NCI, 2004).
Toxic doses and inconclusive results are not listed. Cut-off read from the data, not from the text of the source: active = T/C of 150% or more; inactive = T/C below 125%.

Test system: L1210 leukemia ip in BDF1 mice, survival T/C
Assay: NCI In Vivo Anticancer Drug Screen. Data for tumor model L1210 Leukemia (intraperitoneal) in B6D2F1 (BDF1) mice
Conditions: endpoint: mean survival time, higher = longer survival
Outline: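 Transplanted-tumor mice were given test agent; controls received vehicle only. Survival readings from the two groups were divided (treated over control).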

[1] = dose: 100.0 mg/kg/injection, schedule: Q04DX002 (ip), vehicle: Klucel (hydroxypropylcellulose) (HPC)
[2] = dose: 200.0 mg/kg/injection, schedule: Q04DX002 (ip), vehicle: Klucel (hydroxypropylcellulose) (HPC)
[3] = dose: 400.0 mg/kg/injection, schedule: Q04DX002 (ip), vehicle: Klucel (hydroxypropylcellulose) (HPC)
[4] = dose: 12.5 mg/kg/injection, schedule: Q04DX002 (ip), vehicle: saline with Tween-80
[5] = dose: 25.0 mg/kg/injection, schedule: Q04DX002 (ip), vehicle: saline with Tween-80
[6] = dose: 50.0 mg/kg/injection, schedule: Q04DX002 (ip), vehicle: saline with Tween-80
[7] = dose: 100.0 mg/kg/injection, schedule: Q04DX003 (ip), vehicle: saline with Tween-80
[8] = dose: 200.0 mg/kg/injection, schedule: Q04DX003 (ip), vehicle: saline with Tween-80
[9] = dose: 200.0 mg/kg/injection, schedule: Q01DX001 (ip), vehicle: carboxymethylcellulose (CMC)
[10] = dose: 400.0 mg/kg/injection, schedule: Q01DX001 (ip), vehicle: carboxymethylcellulose (CMC)
[11] = dose: 100.0 mg/kg/injection, schedule: Q01DX001 (ip), vehicle: saline
[12] = dose: 200.0 mg/kg/injection, schedule: Q01DX001 (ip), vehicle: saline
[13] = dose: 400.0 mg/kg/injection, schedule: Q01DX001 (ip), vehicle: saline
[14] = dose: 100.0 mg/kg/injection, schedule: Q04DX003 (ip), vehicle: Klucel (hydroxypropylcellulose) (HPC)
[15] = dose: 200.0 mg/kg/injection, schedule: Q04DX003 (ip), vehicle: Klucel (hydroxypropylcellulose) (HPC)
[16] = dose: 400.0 mg/kg/injection, schedule: Q04DX003 (ip), vehicle: Klucel (hydroxypropylcellulose) (HPC)
[17] = dose: 100.0 mg/kg/injection, schedule: Q04DX002 (ip), vehicle: saline
[18] = dose: 200.0 mg/kg/injection, schedule: Q04DX002 (ip), vehicle: saline
[19] = dose: 400.0 mg/kg/injection, schedule: Q04DX002 (ip), vehicle: saline
[20] = dose: 100.0 mg/kg/injection, schedule: Q01DX009 (ip), vehicle: saline with Tween-80
[21] = dose: 200.0 mg/kg/injection, schedule: Q01DX009 (ip), vehicle: saline with Tween-80
[22] = dose: 50.0 mg/kg/injection, schedule: Q01DX009 (ip), vehicle: saline with Tween-80

Measured: T/C

CN(Cc1ccccc1)C(=O)C(c1ccccc1)c1ccccc1
inactive: [1] 89 % of control | [2] 86 % of control | [3] 96 % of control

CCOC(=O)/C=C/Sc1ccccc1
inactive: [4] 98 % of control | [5] 98 % of control | [6] 91 % of control

c1ccc(NC(Nc2ccccn2)c2ccncc2)nc1
inactive: [7] 104 % of control | [8] 111 % of control

CCCCC(=O)N/N=C/c1ccccc1[N+](=O)[O-]
inactive: [9] 95 % of control | [10] 90 % of control

CCOC(=O)CCCc1cccc(OC)c1OC
inactive: dose: 100.0 mg/kg/injection, schedule: Q01DX001 (ip), vehicle: saline with Tween-80 91 % of control | dose: 200.0 mg/kg/injection, schedule: Q01DX001 (ip), vehicle: saline with Tween-80 91 % of control | dose: 400.0 mg/kg/injection, schedule: Q01DX001 (ip), vehicle: saline with Tween-80 98 % of control

COc1cc(/C=C2/N=C(C)OC2=O)cc(Cl)c1OC
inactive: [11] 87 % of control | [12] 90 % of control | [13] 87 % of control

O=c1oc2ccccc2c(O)c1C(c1ccc2c(c1)CCC2)c1c(O)c2ccccc2oc1=O
inactive: [14] 92 % of control | [15] 100 % of control | [16] 92 % of control

O=c1[nH]cc([N+](=O)[O-])c(=O)[nH]1
inactive: [17] 100 % of control | [18] 106 % of control | [19] 95 % of control

CC1=NCCN1CCNC(=O)c1ccc(C(=O)NCCN2CCN=C2C)cc1
inactive: dose: 5.0 mg/kg/injection, schedule: Q01DX001 (ip), vehicle: saline 103 % of control | dose: 10.0 mg/kg/injection, schedule: Q01DX001 (ip), vehicle: saline 101 % of control

CS(=O)(=O)N(c1ccccc1)c1ccccc1N
inactive: dose: 100.0 mg/kg/injection, schedule: Q01DX001 (ip), vehicle: other 94 % of control | dose: 200.0 mg/kg/injection, schedule: Q01DX001 (ip), vehicle: other 107 % of control | dose: 400.0 mg/kg/injection, schedule: Q01DX001 (ip), vehicle: other 88 % of control

C(=C\CSc1ccccc1)/CSc1ccccc1
inactive: [1] 97 % of control | [2] 94 % of control | [3] 97 % of control

OC(Cn1cnc2ccccc21)c1ccccc1 (configuration not stated)
inactive: [14] 96 % of control | [15] 97 % of control | [16] 94 % of control

CCN(CC)c1ccc(Cc2ccc3c(c2O)C(=O)c2c(O)cccc2C3=O)cc1
inactive: dose: 100.0 mg/kg/injection, schedule: Q01DX009 (ip), vehicle: saline 94 % of control | [17] 101 % of control | dose: 200.0 mg/kg/injection, schedule: Q01DX009 (ip), vehicle: saline 96 % of control | [18] 92 % of control | dose: 400.0 mg/kg/injection, schedule: Q01DX009 (ip), vehicle: saline 97 % of control | [19] 89 % of control

CN(C)CCc1ccc(Nc2ccnc3cc(Cl)ccc23)cc1
inactive: dose: 75.0 mg/kg/injection, schedule: Q01DX001 (ip), vehicle: saline 101 % of control | dose: 150.0 mg/kg/injection, schedule: Q01DX001 (ip), vehicle: saline 98 % of control | dose: 300.0 mg/kg/injection, schedule: Q01DX001 (ip), vehicle: saline 95 % of control

CCCCC(=O)N/N=C/c1ccc(OC)c(O)c1
inactive: [11] 109 % of control | [12] 104 % of control | [13] 106 % of control

N/C(Cc1ccc([N+](=O)[O-])cc1)=N\O
inactive: dose: 25.0 mg/kg/injection, schedule: Q01DX009 (ip), vehicle: Klucel (hydroxypropylcellulose) (HPC) 100 % of control | dose: 50.0 mg/kg/injection, schedule: Q01DX009 (ip), vehicle: Klucel (hydroxypropylcellulose) (HPC) 91 % of control | dose: 100.0 mg/kg/injection, schedule: Q01DX009 (ip), vehicle: Klucel (hydroxypropylcellulose) (HPC) 100 % of control

CC1=NC(C)CNC(C)(C)CC(C)=NC(C)CNC(C)(C)C1 (configuration not stated)
inactive: dose: 25.0 mg/kg/injection, schedule: Q04DX002 (ip), vehicle: Klucel (hydroxypropylcellulose) (HPC) 88 % of control | dose: 50.0 mg/kg/injection, schedule: Q04DX002 (ip), vehicle: Klucel (hydroxypropylcellulose) (HPC) 94 % of control | [1] 112 % of control

Oc1ccccc1/C=N\N=C(N/N=C/c1ccccc1O)N/N=C/c1ccccc1O
inactive: dose: 15.0 mg/kg/injection, schedule: Q01DX Z (ip), vehicle: saline 98 % of control | dose: 30.0 mg/kg/injection, schedule: Q01DX Z (ip), vehicle: saline 102 % of control | dose: 60.0 mg/kg/injection, schedule: Q01DX Z (ip), vehicle: saline 102 % of control | dose: 120.0 mg/kg/injection, schedule: Q01DX Z (ip), vehicle: saline 96 % of control | dose: 120.0 mg/kg/injection, schedule: Q01DX Z (oral), vehicle: saline 95 % of control | dose: 240.0 mg/kg/injection, schedule: Q01DX Z (ip), vehicle: saline 101 % of control | dose: 240.0 mg/kg/injection, schedule: Q01DX Z (oral), vehicle: saline 90 % of control | dose: 480.0 mg/kg/injection, schedule: Q01DX Z (ip), vehicle: saline 95 % of control | dose: 480.0 mg/kg/injection, schedule: Q01DX Z (oral), vehicle: saline 92 % of control | dose: 960.0 mg/kg/injection, schedule: Q01DX Z (oral), vehicle: saline 90 % of control

CCP1CCC(=NNC(N)=S)CC1 (configuration not stated)
inactive: [4] 95 % of control | [5] 95 % of control | [6] 93 % of control

O=C(O)c1ccc(CCCCCCl)cc1
inactive: [20] 103 % of control | [21] 111 % of control

C1CCC(C2CCCC(C3CCCCC3)C2)CC1 (configuration not stated)
inactive: dose: 100.0 mg/kg/injection, schedule: Q01DX001 (ip), vehicle: carboxymethylcellulose (CMC) 94 % of control | [9] 96 % of control | [10] 94 % of control

CN(C)CC(CN1c2ccccc2Sc2ccccc21)N(C)C (configuration not stated)
inactive: dose: 6.25 mg/kg/injection, schedule: Q01DX009 (ip), vehicle: saline 94 % of control | dose: 12.5 mg/kg/injection, schedule: Q01DX009 (ip), vehicle: saline 105 % of control | dose: 25.0 mg/kg/injection, schedule: Q01DX009 (ip), vehicle: saline 92 % of control | dose: 25.0 mg/kg/injection, schedule: Q04DX003 (ip), vehicle: saline 96 % of control | dose: 50.0 mg/kg/injection, schedule: Q01DX009 (ip), vehicle: saline 101 % of control | dose: 50.0 mg/kg/injection, schedule: Q04DX003 (ip), vehicle: saline 93 % of control | dose: 100.0 mg/kg/injection, schedule: Q04DX003 (ip), vehicle: saline 90 % of control

Cc1c(C)c2cc3ccc(Cl)cc3nc2c2ccccc12
inactive: [14] 103 % of control | [15] 105 % of control | [16] 110 % of control

CCC(c1ccc2cc(OC)ccc2c1)C(CC(=O)O)C(=O)OC (configuration not stated)
inactive: [14] 100 % of control | [15] 96 % of control | [16] 91 % of control

COC(=O)C(O)c1cccc(OC)c1 (configuration not stated)
inactive: [20] 96 % of control | [7] 107 % of control | [21] 93 % of control | [8] 96 % of control | dose: 400.0 mg/kg/injection, schedule: Q01DX009 (ip), vehicle: saline with Tween-80 104 % of control | dose: 400.0 mg/kg/injection, schedule: Q04DX003 (ip), vehicle: saline with Tween-80 105 % of control

CCCCCC/C=N/Nc1ccc([N+](=O)[O-])cc1[N+](=O)[O-]
inactive: [22] 101 % of control | [20] 102 % of control | [21] 91 % of control

CCN(/C=C1/SC(=S)NC1=O)CC
inactive: [22] 109 % of control | [20] 98 % of control | [21] 119 % of control

CCCCCCCCCCCCCCCCCCNC(=S)NCCCCCCCCCCCCCCCC
inactive: dose: 55.0 mg/kg/injection, schedule: Q01DX Z (ip), vehicle: methylcellulose (MC) 123 % of control | dose: 83.0 mg/kg/injection, schedule: Q01DX Z (ip), vehicle: methylcellulose (MC) 106 % of control | dose: 125.0 mg/kg/injection, schedule: Q01DX Z (ip), vehicle: methylcellulose (MC) 104 % of control
